# Measured values published in patent publication US20220169598A1, “HALOGENATED PHENYLSULFONAMIDE HYDROXAMIC ACID COMPOUNDS, COMPOSITIONS AND USES THEREOF AS SELECTIVE HDAC6 INHIBITORS” (2681603 ONTARIO INC., priority 2019, published 2022).
# Where two headings read alike, the source gives them in different places.
# Assays:
# HeLa cells = experiment: Immunofluorescence analysis of α-tubulin and histone H3 acetylation; format: cell-based; conditions: 6 h treatment
# Text: Similar analysis is shown for exemplary compound I-34 in FIG. 19.
# [1] = Kinetic solubility by analytical HPLC; format: physicochemical; conditions: PBS with 5% (v/v) DMSO, aqueous with cosolvent or surfactant or cyclodextrin, kinetic from dmso stock; PBS + 5% DMSO; initial concentration 300 μM; read-out: Saturation Concentration
# Protocol: The initial concentration of each exemplary compound was 300 μM.
# panel of 97 kinases = experiment: Kinome screen; format: biochemical; conditions: kinase screen
# K562 = experiment: Cytotoxicity in cell lines; format: cell-based; conditions: Homo sapiens
# Protocol: (§1) The cytotoxicity of exemplary compounds of the application was tested in multiple cell lines including MV-4-11, MOLM-13, MCF-7, MRC9, K562 and MM.1S. The therapeutic index was evaluated by determining the toxicity of the exemplary compounds in healthy cell lines including fibroblasts and HUVEC.
# MOLM-13 = experiment: Cytotoxicity in cell lines; format: cell-based; conditions: Homo sapiens
# Protocol: as §1
# MV-4-11 = experiment: Cytotoxicity in cell lines; format: cell-based; conditions: Homo sapiens
# Protocol: as §1
# HUVEC = experiment: Toxicity in healthy cell lines; format: cell-based; conditions: Homo sapiens, read-out: IC50 HUVEC
# Protocol: as §1
# Normal Human Fibroblast = experiment: Toxicity in healthy cell lines; format: cell-based; conditions: read-out: IC50 Normal Human Fibroblast
# Protocol: as §1
# MM.1S = experiment: Cytotoxicity in cell lines; format: cell-based; conditions: Homo sapiens, MM1.S; Table 4
# Protocol: as §1
# MRC9 = experiment: Cytotoxicity in cell lines; format: cell-based; conditions: Table 5
# Protocol: as §1
# HDAC6 = target: T1, HDAC6 (Homo sapiens, UniProt Q9UBN7); experiment: in vitro activity-based HDAC assay; format: biochemical; conditions: ranges given; read-out: IC50 for HDAC6
# T1 sequence (Q9UBN7 1-1215): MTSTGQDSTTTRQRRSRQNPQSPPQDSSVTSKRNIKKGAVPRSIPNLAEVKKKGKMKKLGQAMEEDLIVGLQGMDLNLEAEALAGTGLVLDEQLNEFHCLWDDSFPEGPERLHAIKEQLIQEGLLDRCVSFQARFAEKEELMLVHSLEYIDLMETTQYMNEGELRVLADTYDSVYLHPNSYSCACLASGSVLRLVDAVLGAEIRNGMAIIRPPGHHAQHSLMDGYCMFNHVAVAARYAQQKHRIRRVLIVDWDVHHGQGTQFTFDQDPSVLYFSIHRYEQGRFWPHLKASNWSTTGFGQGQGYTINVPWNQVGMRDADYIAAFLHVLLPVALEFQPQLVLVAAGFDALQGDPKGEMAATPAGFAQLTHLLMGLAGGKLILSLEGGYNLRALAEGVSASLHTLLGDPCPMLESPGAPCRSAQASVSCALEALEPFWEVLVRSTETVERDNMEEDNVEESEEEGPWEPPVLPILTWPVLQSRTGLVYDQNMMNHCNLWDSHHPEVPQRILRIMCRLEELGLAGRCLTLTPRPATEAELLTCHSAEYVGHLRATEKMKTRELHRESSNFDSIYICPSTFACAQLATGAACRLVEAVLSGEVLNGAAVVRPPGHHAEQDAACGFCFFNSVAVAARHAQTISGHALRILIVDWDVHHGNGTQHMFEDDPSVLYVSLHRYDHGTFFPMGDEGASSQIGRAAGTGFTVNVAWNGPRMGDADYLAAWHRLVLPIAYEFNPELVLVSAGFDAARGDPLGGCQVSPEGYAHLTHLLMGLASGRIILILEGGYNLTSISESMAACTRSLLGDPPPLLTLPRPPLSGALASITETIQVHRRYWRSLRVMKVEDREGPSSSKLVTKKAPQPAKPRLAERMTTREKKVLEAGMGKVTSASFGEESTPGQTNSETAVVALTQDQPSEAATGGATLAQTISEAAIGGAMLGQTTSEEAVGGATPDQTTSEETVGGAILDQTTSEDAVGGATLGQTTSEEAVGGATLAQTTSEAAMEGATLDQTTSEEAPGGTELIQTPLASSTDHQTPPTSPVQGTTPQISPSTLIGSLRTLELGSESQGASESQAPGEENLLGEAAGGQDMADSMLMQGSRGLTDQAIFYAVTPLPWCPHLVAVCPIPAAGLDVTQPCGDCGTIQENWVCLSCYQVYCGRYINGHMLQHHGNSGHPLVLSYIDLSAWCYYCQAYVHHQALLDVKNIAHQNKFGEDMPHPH
# Protocol: The exemplary compounds of Formula I and structurally related compounds were synthesized to assess their structure-activity relationship. […] The IC50 values for each exemplary compound were used to calculate the selectivity of the exemplary compounds for Formula I to HDAC6. The selectivity of each exemplary compound for HDAC6 was determined from examining the potency of HDAC6 in relation to the highest binding affinity of the other HDAC isoforms tested.
# [2] = K562, Table 4, read-out: IC50 K562
# [3] = MOLM-13, Table 4, read-out: IC50 MOLM-13
# [4] = MV4-11, Table 4, read-out: IC50 MV-411
# [5] = K562, Table 5, read-out: IC50 K562
# [6] = MOLM-13, Table 5, read-out: IC50 MOLM-13
# [7] = MV4-11, Table 5, read-out: IC50 MV-411
structure (smiles),measurement,setting,value
"O=C(CCCCCCNC(=O)c1cnc(N(c2ccccc2)c2ccccc2Cl)nc1)NO [Citarinostat, reference compound]",effect on α-tubulin acetylation (immunofluorescence),HeLa cells,no preferential acetylation on α-tubulin until high concentrations
"CC(C)N(Cc1ccc(C(=O)NO)cc1)S(=O)(=O)c1cc(F)c(F)c(F)c1F [Compound I-12, N-hydroxy-4-((2,3,4,5-tetrafluoro-N-isopropylphenylsulfonamido)methyl)benzamide]",solubility kinetic,[1],74.5 ± 3 µM
same,inhibitory activity on a panel of 97 kinases,panel of 97 kinases,limited to no inhibitory activity
"O=C(NO)c1ccc(CN(Cc2cccnc2F)S(=O)(=O)c2cc(F)c(F)c(F)c2F)cc1 [Compound I-19, N-hydroxy-4-((2,3,4,5-tetrafluoro-N-((2-fluoropyridin-3-yl)methyl)phenylsulfonamido)methyl)benzamide]",IC50,K562; [2],5.6 µM
"O=C(NO)c1ccc(CN(CCc2ccccc2F)S(=O)(=O)c2cc(F)c(F)c(F)c2F)cc1 [Compound I-21, N-hydroxy-4-((2,3,4,5-tetrafluoro-N-(2-fluorophenethyl)phenylsulfonamido)methyl)benzamide]",IC50,K562; [2],7.9 µM
same,IC50,MOLM-13; [3],1.7 µM
same,IC50,MV-4-11; [4],0.478 µM
"O=C(NO)c1ccc(CN(Cc2cccnc2)S(=O)(=O)c2cc(F)c(F)c(F)c2F)c(F)c1 [Compound I-30, 3-fluoro-N-hydroxy-4-((2,3,4,5-tetrafluoro-N-(pyridin-3-ylmethyl)phenylsulfonamido)methyl)benzamide]",solubility kinetic,[1],46 ± 4.4 µM
same,IC50,K562; [2],9.3 µM
same,IC50,MOLM-13; [3],2.9 µM
same,IC50,MV-4-11; [4],0.607 µM
same,IC50,"HUVEC; Table 4, healthy cells",4.1 µM
same,IC50,"Normal Human Fibroblast; Table 4, healthy cells",6.1 µM
"O=C(NO)c1ccc(CN(Cc2cccnc2F)S(=O)(=O)c2cc(F)c(F)c(F)c2F)c(F)c1 [Compound I-32, 3-fluoro-N-hydroxy-4-((2,3,4,5-tetrafluoro-N-((2-fluoropyridin-3-yl)methyl)phenylsulfonamido)methyl)benzamide]",IC50,K562; [2],8.6 µM
same,IC50,MOLM-13; [3],1.98 µM
same,IC50,MV-4-11; [4],0.389 µM
same,IC50,"HUVEC; Table 4, healthy cells",5.1 µM
same,IC50,"Normal Human Fibroblast; Table 4, healthy cells",7.1 µM
"O=C(NO)c1ccc(CN(C2CCCC2)S(=O)(=O)c2cc(F)c(F)c(F)c2F)cc1 [Compound I-51, 4-(((N-cyclopentyl-2,3,4,5-tetrafluorophenyl)sulfonamido)methyl)-N-hydroxybenzamide]",IC50,MM.1S,2.7 µM
same,IC50,MV-4-11; [4],2.8 µM
"CC(C)N(Cc1cc(F)c(C(=O)NO)cc1F)S(=O)(=O)c1cc(F)c(F)c(F)c1F [Compound I-52, 2,5-difluoro-N-hydroxy-4-(((2,3,4,5-tetrafluoro-N-isopropylphenyl)sulfonamido)methyl)benzamide]",IC50,MM.1S,0.4 µM
same,IC50,MV-4-11; [4],1 µM
"CC(C)CN(Cc1ccc(C(=O)NO)cc1)S(=O)(=O)c1cc(F)c(F)c(F)c1F [Compound I-54, N-hydroxy-4-(((2,3,4,5-tetrafluoro-N-isobutylphenyl)sulfonamido)methyl)benzamide]",IC50,MM.1S,0.7 µM
same,IC50,MV-4-11; [4],0.5 µM
O=C(/C=C/c1ccc(CN(C2CC2)S(=O)(=O)c2c(F)c(F)c(F)c(F)c2F)cc1)NO [Compound I-56],IC50,MRC9,> 50 µM
"O=C(/C=C/c1ccc(CN(C2CCCC2)S(=O)(=O)c2c(F)c(F)c(F)c(F)c2F)cc1)NO [Compound I-57, (E)-3-(4-((N-cyclopentyl-2,3,4,5,6-pentafluorophenylsulfonamido)methy)phenyl)-N-hydroxyacrylamide]",IC50,HDAC6,0.01 to 0.03 µM
same,IC50,MRC9,> 50 µM
COc1cc(/C=C/C(=O)NO)ccc1CN(Cc1cccnc1F)S(=O)(=O)c1cc(F)c(F)c(F)c1F [Compound I-77],IC50,K562; [5],72.8 µM
same,IC50,MOLM-13; [6],3.3 µM
same,IC50,MV-4-11; [7],1.1 µM
O=C(/C=C/c1ccc(CN(Cc2cccnc2F)S(=O)(=O)c2cc(F)c(F)c(F)c2F)c(C(F)(F)F)c1)NO [Compound I-79],IC50,K562; [5],25.9 µM
same,IC50,MOLM-13; [6],7.9 µM
same,IC50,MV-4-11; [7],0.329 µM
O=C(/C=C/c1ccc(CN(Cc2cccnc2)S(=O)(=O)c2cc(F)c(F)c(F)c2F)c(C(F)(F)F)c1)NO [Compound I-80],IC50,K562; [5],16.3 µM
same,IC50,MOLM-13; [6],7.6 µM
same,IC50,MV-4-11; [7],0.338 µM
"O=C(/C=C/c1ccc(CNC(=O)c2cc(F)c(F)c(F)c2F)cc1)NO [Compound I-82, (E)-2,3,4,5-tetrafluoro-N-(4-(3-(hydroxyamino)-3-oxoprop-1-en-1-yl)benzyl)benzamide]",IC50,HDAC6,0.01 to 0.03 µM
same,IC50,MV-4-11; [7],0.59 µM
"O=C(CCCCCCNC(=O)c1cnc(N(c2ccccc2)c2ccccc2)nc1)NO [Ricolinostat, reference compound]",solubility kinetic,[1],26.1 ± 11.3 µM
same,IC50,"K562; K562, read-out: IC50 K562",12.8 µM
same,IC50,"MOLM-13; MOLM-13, read-out: IC50 MOLM-13",6.49 µM
same,IC50,"MV-4-11; MV4-11, read-out: IC50 MV-411",0.656 µM
same,IC50,HUVEC,4.9 µM
same,IC50,Normal Human Fibroblast,5.7 µM
